Experiments:
Assay in all cases: CTG-3D luminescence at 96 h relative to day-0 seeding control (ratio to day 0); higher = more growth / less cytotoxicity; PDxO 3D drug screen, 96 h, CTG-3D normalised to day-0 seeding control.
HCI-011.E2 = tested on: HCI-011.E2 (organoid from an ER-positive breast cancer xenograft)
MDA-MB-231 = tested on: MDA-MB-231
HCI-008 = tested on: HCI-008 (organoid from a HER2-enriched breast cancer xenograft)
HCI-015 = tested on: HCI-015 (organoid from a triple-negative breast cancer xenograft)
HCI-017.E2 = tested on: HCI-017.E2 (organoid from an ER-positive breast cancer xenograft)
HCI-027 = tested on: HCI-027 (organoid from a triple-negative breast cancer xenograft)
HCI-005.E2 = tested on: HCI-005.E2 (organoid from a breast cancer xenograft with a HER2-positive history)

Nc1ccn([C@@H]2O[C@H](CO)[C@@H](O)C2(F)F)c(=O)n1 [gemcitabine]
CTG-3D luminescence at 96 h
Conditions	12.5 pM	0.00025 µM	0.005 µM	0.1 µM	1 µM	10 µM	100 µM	625 fM
HCI-005.E2	1.6	1.96	1.71	0.511	0.224	0.406	0.438	1.65
HCI-011.E2	1.72	1.78	1.43	1.87	1.54	1.78	1.6	1.9
HCI-017.E2	2.08	2.07	1.97	1.88	1.74	1.54	1.67	2.23
MDA-MB-231	4.42	4.37	4.14	2.62	2	1.11	0.848	4.44

CTG-3D luminescence at 96 h
Conditions	12.5 pM	0.00025 µM	0.005 µM	0.1 µM	1 µM	10 µM	100 µM	625 fM
HCI-008, days in culture: 228	1.403	1.8	1.3404	0.6483	0.596	0.717	0.362	1.48
HCI-008, days in culture: 244	1.25	1.74	1.74	1.26	0.69	0.873	0.465	2.18
HCI-011.E2, days in culture: 74	2.11	2.93	2.13	2.09	2.18	2.75	2.12	2.22
HCI-015, days in culture: 172	2.22	1.3	1.95	0.109	0.123	0.136	0.152	2.75
HCI-015, days in culture: 191	2.28	1.52	0.975	0.116	0.114	0.105	0.109	1.5
HCI-015, days in culture: 218	1.86	1.48	0.887	0.138	0.105	0.107	0.0645	1.8
HCI-017.E2, days in culture: 85	2.64	2.91	2.88	1.88	1.87	1.29	1.7	2.11
HCI-027, days in culture: 176	2.02	1.16	1.52	0.363	0.366	0.298	0.25	2.36
HCI-027, days in culture: 194	1.78	1.42	0.983	0.145	0.284	0.28	0.115	1.66
HCI-027, days in culture: 201	2.19	1.37	0.658	0.204	0.136	0.21	0.104	2.28

NC(=O)c1cccc2cn(-c3ccc([C@@H]4CCCNC4)cc3)nc12 [niraparib]
CTG-3D luminescence at 96 h
Conditions	12.5 pM	0.00025 µM	0.005 µM	0.1 µM	1 µM	10 µM	100 µM	625 fM
HCI-005.E2	1.22	1.61	1.3	1.62	1.51	1.05	-0.00126	1.35
HCI-011.E2	1.33	1.59	1.3	1.76	1.7	1.55	0.00155	1.465
HCI-017.E2	1.823	1.66	1.89	1.61	1.48	1.58	0.00319	1.94
MDA-MB-231	4.51	4.46	4.51	4.46	4.41	3.96	0.00282	4.58

CTG-3D luminescence at 96 h
Conditions	12.5 pM	0.00025 µM	0.005 µM	0.1 µM	1 µM	10 µM	100 µM	625 fM
HCI-008, days in culture: 228	1.87	1.97	1.45	1.55	1.34	0.828	0.00065	1.72
HCI-008, days in culture: 244	1.42	1.98	1.91	2.31	1.77	1.17	-0.000168	2.42
HCI-011.E2, days in culture: 74	1.93	2.01	1.98	1.97	1.88	2.89	0.00301	1.92
HCI-015, days in culture: 172	2.77	1.86	2.64	1.3	0.847	0.199	-0.107	2.29
HCI-015, days in culture: 191	2.28	1.35	1.72	1.06	1.12	0.29	-0.000426	1.59
HCI-015, days in culture: 218	2.06	1.35	1.71	1.25	0.615	-0.0786	-0.35	1.94
HCI-017.E2, days in culture: 85	2.25	2.22	2.21	2.63	2.09	1.81	0.00236	1.95
HCI-027, days in culture: 176	3.12	1.73	3.18	2.13	1.7	0.11	-0.239	3.68
HCI-027, days in culture: 194	2.35	1.82	2.05	2.39	1.88	0.735	-0.0845	2.19
HCI-027, days in culture: 201	3.32	3.11	3.01	2.94	1.55	0.457	-0.0215	2.7

From the supplement of paper PMC8882468
